For assay [1], the system named is Histoplasma capsulatum. The assay is described as follows: Antimicrobial activity against Histoplasma capsulatum isolates form AIDS patient with primary histoplasmosis by modified CLSI method. It counts as functional.
For assay [2], the system named is Histoplasma capsulatum. The assay is described as follows: Antimicrobial activity against Histoplasma capsulatum isolates form AIDS patient with relapsed histoplasmosis by modified CLSI method. Format: functional.

The text below walks through data of ChEMBL document CHEMBL1150786, “Relationship of blood level and susceptibility in voriconazole treatment of histoplasmosis” (2007).

In brackets after ≈: the same amount, converted by molar mass.

Regarding `C[C@@H](c1ncncc1F)[C@](O)(Cn1cncn1)c1ccc(F)cc1F` [VORICONAZOLE], the MIC in assay [1] was found to be 0.015 µg/mL (≈ 0.0429 µM); in assay [2], 0.03 µg/mL (≈ 0.0859 µM).

In general, MIC refers to the lowest concentration found to suppress growth. Lower therefore signals inhibition by little substance.
